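Assay format: 96-well plates, 48-hour exposure. Abbreviation: GI50, concentration required for 50% inhibition of growth.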 Activity calls are given as the source filed them. Cut-off read from the data, not from the text of the source: active = GI50 up to about 1.1 µM and inactive = higher.
How the values were obtained:
Assay in all cases: NCI tumour cell line growth inhibition, 48 h
786-0 = system: 786-0
A549 = system: A549
ACHN = system: ACHN
CCRF-CEM = system: CCRF-CEM
COLO 205 = system: COLO 205
DLD-1 = system: DLD-1
DMS-114 = system: DMS-114
DMS-273 = system: DMS-273
EKVX = system: EKVX
HCC 2998 = system: HCC 2998
HCT-116 = system: HCT-116
HCT-15 = system: HCT-15
HL-60 = system: HL-60
HOP-62 = system: HOP-62
HOP-92 = system: HOP-92
HT-29 = system: HT-29
IGROV-1 = system: IGROV-1
K562 = system: K562
KM-20L2 = system: KM-20L2
KM12 = system: KM12
LXFL 529 = system: LXFL 529
M14 = system: M14
M19-MEL = system: M19-MEL
MOLT-4 = system: MOLT-4
Malme-3M = system: Malme-3M
NCI-H23 = system: NCI-H23
NCI-H460 = system: NCI-H460
NCI-H522 = system: NCI-H522
OVCAR-3 = system: OVCAR-3
OVCAR-4 = system: OVCAR-4
OVCAR-5 = system: OVCAR-5
OVCAR-8 = system: OVCAR-8
RPMI-8226 = system: RPMI-8226
RXF 393 = system: RXF 393
RXF 631 = system: RXF 631
SF-268 = system: SF-268
SF-295 = system: SF-295
SF-539 = system: SF-539
SK-MEL-28 = system: SK-MEL-28
SK-MEL-2 = system: SK-MEL-2
SK-MEL-5 = system: SK-MEL-5
SN12C = system: SN12C
SNB-19 = system: SNB-19
SNB-75 = system: SNB-75
SNB-78 = system: SNB-78
SW-620 = system: SW-620
TK-10 = system: TK-10
U-251 = system: U-251
UACC-257 = system: UACC-257
UACC-62 = system: UACC-62
UO-31 = system: UO-31
XF498 = system: XF498

Measured: GI50

O=C1c2ccccc2-c2cccc3ccc(Cc4ccccc4)c1c23
inactive: 786-0 > 100 µM | A549 > 100 µM | ACHN > 100 µM | CCRF-CEM > 100 µM | COLO 205 > 100 µM | DLD-1 > 100 µM | DMS-114 > 100 µM | DMS-273 > 100 µM | EKVX > 100 µM | HCC 2998 > 100 µM | HCT-116 > 100 µM | HL-60 > 100 µM | HOP-62 > 100 µM | HOP-92 > 100 µM | HT-29 > 100 µM | IGROV-1 > 100 µM | K562 37.6 µM | KM-20L2 > 100 µM | KM12 > 100 µM | LXFL 529 > 100 µM | M14 > 100 µM | M19-MEL > 100 µM | MOLT-4 > 100 µM | Malme-3M > 100 µM | NCI-H23 > 100 µM | NCI-H460 > 100 µM | NCI-H522 > 100 µM | OVCAR-3 > 100 µM | OVCAR-4 84.3 µM | OVCAR-5 > 100 µM | OVCAR-8 > 100 µM | RPMI-8226 > 100 µM | RXF 393 > 100 µM | RXF 631 > 100 µM | SF-268 > 100 µM | SF-295 > 100 µM | SF-539 > 100 µM | SK-MEL-28 > 100 µM | SK-MEL-2 > 100 µM | SK-MEL-5 > 100 µM | SN12C > 100 µM | SNB-19 > 100 µM | SNB-75 6.53 µM | SNB-78 > 100 µM | SW-620 > 100 µM | TK-10 > 100 µM | U-251 > 100 µM | UACC-257 > 100 µM | UACC-62 > 100 µM | UO-31 > 100 µM | XF498 > 100 µM
> 100 µM: HCT-15

From ChEMBL document CHEMBL1201862, “PubChem BioAssay data set” (2004)
